Test results: patent US11618880B2, “Compositions comprising bacterial strains and use thereof in controlling pathogenic microorganisms” (Better Air International Limited, priority 2018, dated 2023)

How the values were obtained:
Experiment in all cases: Agar well diffusion assay, antagonism of molds
Assay type in all cases: cell-based
Conditions in all cases: PDA plates, 25° C. 72 hours
[1] = tested on: Penicillium chrysogenum Thom (ATCC MYA-4644)
Protocol: (§1) The agar well diffusion assay was performed to evaluate the antagonistic activity of B. amyloliquefaciens 298 against the growth of pathogenic bacteria including Escherichia coli ATCC 22922, Pseudomonas aeruginosa, B. cereus ATCC 27348, Staphylococcus aureus ATCC 11335, Salmonella Typhimurium ATCC 14028 and Listeria innocua ATCC 3586. […] Brain Heart Infusion (BHI) Agar was used for the antagonism against pathogenic microorganisms while the Potato Dextrose Agar (PDA) was used for evaluation against molds. Reference pathogens were prepared using BHI broth at 37° C. for 18 hours while B. amyloliquefaciens 298 was grown using LB broth at 37° C. for 18 hours. Molds were prepared using PDA at 25° C. with 85% HR for 7 days. Mold spores, pathogens and B. amyloliquefaciens 298 were harvested and resuspended in PBS. Pathogens and B. amyloliquefaciens 298 were adjusted to an optical density of 0.2 and 100 uL of pathogen suspended in PBS was spread on BHI agar plates. The same amount of mold spore suspension was inoculated on PDA. Wells were made in all the plates and 20 μL of B. amyloliquefaciens 298 suspensions were inoculated in the wells while the BHI plates were incubated at 37° C. for 24 hours and PDA plates at 25° C. for 72 hours.

[2] = tested on: Alternaria alternata (Fries) Keissler (ATCC MYA-4642)
Protocol: as §1

[3] = tested on: Cladosporium sphaerospermum Penzig (ATCC MYA-4645)
Protocol: as §1

OO [Hydrogen peroxide 10%, hydrogen peroxide]
Inhibition zone, Penicillium chrysogenum Thom (ATCC MYA-4644) [1]: 10 mm
Inhibition zone, Alternaria alternata (Fries) Keissler (ATCC MYA-4642) [2]: 8 mm
Inhibition zone, Cladosporium sphaerospermum Penzig (ATCC MYA-4645) [3]: 12 mm
